Reference: US10271552B2, “Heterocyclic compounds as pesticides” (Bayer CropScience Aktiengesellschaft, priority 2015, dated 2019)

Assays:
Format in all cases: in vivo
[1] = test system: Boophilus microplus; assay: Boophilus microplus injection test; conditions: 20 μg/animal injected; adult engorged female ticks; after 7 days
Protocol: Boophilus microplus—Injection Test
Solvent: dimethyl sulfoxide
To produce a suitable preparation of active compound, 10 mg of active compound are dissolved in 0.5 ml solvent, and the concentrate is diluted with solvent to the desired concentration.
Five adult engorged female ticks (Boophilus microplus) are injected with 1 μl compound solution into the abdomen. The ticks are transferred into replica plates and incubated in a climate chamber.
After 7 days egg deposition of fertile eggs is monitored. Eggs where fertility is not visible are stored in a climate chamber till hatching after about 42 days. An efficacy of 100% means all eggs are infertile; 0% means all eggs are fertile.

[2] = test system: Meloidogyne incognita; assay: Meloidogyne incognita test; conditions: 20 ppm; eggs and larvae, salad seeds in sand; after 14 days
Protocol: Meloidogyne incognita—Test
Solvent: 125.0 parts by weight of acetone
To produce a suitable preparation of active compound, 1 part by weight of active compound is mixed with the stated amount of solvent, and the concentrate is diluted with water to the desired concentration.
Vessels are filled with sand, a solution of the active ingredient, a suspension containing eggs and larvae of the southern root-knot nematode (Meloidogyne incognita) and salad seeds. The salad seeds germinate and the seedlings grow. Galls develop in the roots.
After 14 days the nematicidal activity is determined on the basis of the percentage of gall formation. 100% means no galls were found and 0% means the number of galls found on the roots of the treated plants was equal to that in untreated control plants.

[3] = test system: Diabrotica balteata; assay: Diabrotica balteata spray test; conditions: 160 μg/well; germinated wheat seeds, larvae; after 7 days
Protocol: Diabrotica Balteata—Spray Test
(§1) Solvent: 78.0 parts by weight of acetone • • 1.5 parts by weight of dimethylformamide
(§2) Emulsifier: alkylarylpolyglycol ether
(§3) To produce a suitable preparation of active compound, 1 part by weight of active compound is mixed with the stated amount of solvent, and the concentrate is diluted with water, containing an emulsifier concentration of 1000 ppm, to the desired concentration. Further test concentrations are prepared by dilution with emulsifier containing water.
Soaked wheat seeds (Triticum aestivum) are placed in a multiple well plate filled with agar and some water and are incubated for 1 day to germinate (5 seeds per well). The germinated wheat seeds are sprayed with a test solution containing the desired concentration of the active ingredient. Afterwards each unit is infected with 10-20 larvae of the banded cucumber beetle (Diabrotica balteata).
After 7 days efficacy in % is determined. 100% means all the seedlings have grown up like in the untreated, uninfected control; 0% means none of the seedlings have grown.

[4] = test system: Phaedon cochleariae; assay: Phaedon cochleariae spray test; conditions: foliar, 168 h, Chinese cabbage leaf disks, larvae, after 7 days
Protocol: Phaedon cochleariae—Spray Test
as §1, §2
as §3, with “solvents” for “solvent,”, “and” for “and the concentrate”
Chinese cabbage (Brassica pekinensis) leaf disks are sprayed with a preparation of the active ingredient of the desired concentration. Once dry, the leaf disks are infested with mustard beetle larvae (Phaedon cochleariae).
After 7 days mortality in % is determined. 100% means all beetle larvae have been killed and 0% means none of the beetle larvae have been killed.

[5] = test system: Nezara viridula; assay: Nezara viridula spray test (solvent 52.5 acetone / 7 dimethylformamide); conditions: 96 h, barley plants, larvae, after 4 days
Protocol: Nezara viridula—Spray Test
Solvent: 52.5 parts by weight of acetone • 7 parts by weight of dimethylformamide
Emulsifier: alkylaryl polyglycolether
To produce a suitable preparation of active compound, 1 part by weight of active compound is mixed with the stated amount of solvent, and the concentrate is diluted with water, containing an emulsifier concentration of 1000 ppm, to the desired concentration. Ammonium salt and/or penetration enhancer in a dosage of 1000 ppm are added to the desired concentration if necessary.
Barley plants (Hordeum vulgare) infested with larvae of the southern green stink bug (Nezara viridula) are sprayed with a test solution containing the desired concentration of the active ingredient.
After 4 days mortality in % is determined. 100% means all the stink bugs have been killed; 0% means none of the stink bugs have been killed.

Structure (SMILES) | nematicidal activity (gall formation) [2] | efficacy (seedling growth) [3] | other results
O=C(Nc1nc(-c2c(F)cccc2F)ns1)c1ccccc1Cl [Compound I-1-3] | 90% |  | efficacy (infertile eggs) [1]: 100%
O=C(Nc1nc(-c2c(F)cccc2F)ns1)c1ccccc1I [Compound I-1-8] |  |  | efficacy (infertile eggs) [1]: 100%
O=C(Nc1nc(-c2c(F)cccc2F)ns1)c1ccccc1C(F)F [Compound I-1-9] | 70% |  | efficacy (infertile eggs) [1]: 100%
O=C(Nc1nc(-c2c(F)cccc2F)ns1)c1ncccc1C(F)(F)F [Compound I-1-13] | 90% |  | 
O=C(Nc1nc(-c2c(F)cccc2F)ns1)c1cccnc1C(F)F [Compound I-1-14] | 100% |  | efficacy (infertile eggs) [1]: 100%
O=C(Nc1nc(-c2ccccc2C(F)(F)F)ns1)c1ccccc1Br [Compound I-1-16] | 90% |  | 
O=C(Nc1nc(-c2ccccc2C(F)(F)F)ns1)c1ncccc1C(F)(F)F [Compound I-1-19] | 90% | 100% | 
O=C(Nc1nc(-c2ccccc2Cl)ns1)c1ccccc1Cl [Compound I-1-22] |  |  | efficacy (infertile eggs) [1]: 100%
CCc1ncccc1C(=O)Nc1nc(-c2c(F)cccc2F)ns1 [Compound I-1-36, N-[3-(2,6-Difluorophenyl)-1,2,4-thiadiazol-5-yl]-2-ethylnicotinamide] | 100% |  | mortality at 500 g/ha [4]: ≥ 80%
O=C(Nc1nc(-c2c(F)cccc2F)ns1)c1cccnc1CC(F)(F)F [Compound I-1-38] |  | 80% | 
O=C(Nc1nc(-c2c(F)cccc2F)ns1)C1=C(C(F)F)OCCS1 [Compound I-1-39] | 70% |  | 
O=C(Nc1nc(-c2ccccc2Cl)ns1)c1nccnc1C(F)(F)F [Compound I-1-44] |  | 100% | efficacy (infertile eggs) [1]: 100%
CCc1ncccc1C(=O)Nc1nc(-c2ccccc2Cl)ns1 [Compound I-1-48] | 90% |  | 
Cc1ccccc1-c1nsc(NC(=O)c2cccnc2C(F)(F)F)n1 [Compound I-1-53] |  | 80% | 
O=C(Nc1nc(-c2cccc(F)c2C(F)(F)F)ns1)c1cccnc1C(F)(F)F [Compound I-1-61] |  | 80% | 
O=C(Nc1nc(-c2cc(F)ccc2C(F)(F)F)ns1)c1cccnc1C(F)(F)F [Compound I-1-64] |  | 100% | 
O=C(Nc1nc(-c2ccc(C(F)(F)F)cc2C(F)(F)F)ns1)c1cccnc1C(F)(F)F [Compound I-1-66, N-{3-[2,4-Bis(trifluoromethyl)phenyl]-1,2,4-thiadiazol-5-yl}-2-(trifluoromethyl)nicotinamide] |  |  | mortality at 500 g/ha [5]: ≥ 90%
N#Cc1ccccc1-c1nsc(NC(=O)c2cccnc2C(F)(F)F)n1 [Compound I-1-67, N-[3-(2-Cyanophenyl)-1,2,4-thiadiazol-5-yl]-2-(trifluoromethyl)nicotinamide] |  |  | mortality at 500 g/ha [5]: ≥ 90%
O=C(Nc1nc(-c2ccccc2OC(F)(F)F)ns1)c1ccccc1C(F)(F)F [Compound I-1-70, N-{3-[2-(trifluoromethoxy)phenyl]-1,2,4-thiadiazol-5-yl}-2-(trifluoromethyl)benzamide] |  | 100% | mortality at 500 g/ha [4]: ≥ 80%
O=C(Nc1nc(-c2ccccc2F)ns1)c1ccccc1C(F)(F)F [Compound I-1-73] |  | 100% | 
O=C(Nc1nc(-c2c(F)cccc2F)ns1)c1cccc(Cl)c1C(F)(F)F [Compound I-1-77] |  | 80% | 
N#Cc1cccc(C#N)c1-c1nsc(NC(=O)c2cccnc2C(F)(F)F)n1 [Compound I-1-78, N-[3-(2,6-Dicyanophenyl)-1,2,4-thiadiazol-5-yl]-2-(trifluoromethyl)nicotinamide] |  |  | mortality at 500 g/ha [4]: ≥ 80%
O=C(Nc1nc(-c2cccnc2Cl)ns1)c1ccccc1C(F)(F)F [Compound I-3-1, N-[3-(2-Chloropyridin-3-yl)-1,2,4-thiadiazol-5-yl]-2-(trifluoromethyl)benzamide] |  |  | mortality at 500 g/ha [4]: ≥ 80%; mortality at 500 g/ha [5]: ≥ 90%
